Data as given in patent publication US12721820B2, “Method of manufacturing peptide nanoparticles” (DuPage Medical Technology, Inc., priority 2020, dated 2026).
Values belong to the compound of their own block, whether it stands above or below them. Residues, ends and D or L forms follow the SMILES beside them. *: point of attachment. Myristoyl = CCCCCCCCCCCCCC(=O)*

Experiments:
in vivo = conditions: male, rat, iv
[1] = tested on: tail bleeding time in mice; experiment: Tail bleeding time; format: in vivo; conditions: same concentrations that inhibit occlusive thrombosis
[2] = Dissolution and storage stability of lyophilized powder; format: physicochemical
Protocol: The M3mP6 HLPN thus generated achieves a high M3mP6 peptide loading reaching >80% of total nanoparticle (mol/mol) (when such percentage of peptide was incorporated into during the process) and a high peptide concentration of >10 mM in injectable suspension. As analyzed by dynamic light scattering (DLS), the vast majority (99.8-100%) of these lipid-stabilized, PEG-coated M3mP6 HLPN have a particle size ranging between 6 nm to 25 nm (in different preparations) with occasional appearance of very small populations (0-0.2%) with larger diameters (~50-500 nm) (FIGS. 5A-5F).

[3] = Rat 5-day infusion pharmacokinetic study; conditions: for AUC(0-t) / Tmax / clearance: plasma; for Css: steady-state plasma concentration during continuous IV infusion; for λz: terminal elimination rate constant
[4] = tested on: laser-induced cremaster arteriolar thrombosis; experiment: Laser-induced cremaster arteriolar thrombosis model; format: in vivo, mice; conditions: laser-induced mouse cremaster arterial thrombosis model; for intravascular coagulation (fibrin clot formation / fibrin deposition): site of vascular injury
Source text: This example illustrates the comparative effect of M3mP6 HLPN (prepared substantially as described in Example 1) and cangrelor on intracvascular coagulation using laser-induced cremaster arteriolar thrombosis model in mice.
It was recently shown that outside-in signaling plays an important role in not only platelet thrombus formation but also intravascular coagulation under flow shear, an important aspect of thrombosis. […] Thus, we tested the effect of M3mP6 HLPN generated by vortex-mixing-lyophilization on platelet thrombus formation and intravascular coagulation in comparison with cangrelor using the laser-induced cremaster arterial thrombosis model.

half-life (in vivo): 234 min | tail bleeding time [1]: without affecting bleeding | storage stability ([2]; lyophilized powder at room temperature (22° C.)): at least 2 weeks | storage stability (similar DLS profile and pharmacological effect) ([2]; lyophilized powder stored at −20° C.): more than 18 months | Vd ([3]; female, in vivo, iv): 0.2 L/kg | AUC(0-t) ([3]; female, intravenous): 17600 µg·h/mL | Tmax ([3]; female, intravenous): 4.8 min | clearance ([3]; female, iv, CL CLAUC, clearance estimated from AUC0-∞): 0.7 mL/min/kg | clearance ([3]; female, iv, CL CLcss, clearance estimated from Css): 0.8 mL/min/kg | Css ([3]; female): 131.117 µg/mL | t1/2-λz ([3]; female, terminal elimination half-life): 186 min | λz ([3]; female): 0.223 h⁻¹ | Vλz ([3]; male, distribution volume): 0.46 L/kg | AUC(0-t) ([3]; male, intravenous): 9490 µg·h/mL | Tmax ([3]; male, intravenous): 4.8 min | clearance ([3]; male, intravenous, CL CLAUC, clearance estimated from AUC0-∞): 1.4 mL/min/kg | clearance ([3]; male, iv, CL CLcss, clearance estimated from Css): 1.3 mL/min/kg | Css ([3]; male): 77.621 µg/mL | λz ([3]; male): 0.177 h⁻¹
Compound: CCCCCCCCCCCCCC(=O)N[C@@H](Cc1ccccc1)C(=O)N[C@@H](CCC(=O)O)C(=O)N[C@@H](CCC(=O)O)C(=O)N[C@@H](CCC(=O)O)C(=O)N[C@@H](CCCNC(=N)N)C(=O)N[C@@H](CC(C)C)C(=O)O [M3mP6, Myr-FEEERL (SEQ ID NO: 8)] (Myristoyl-FEEERL-OH; C-terminus assumed)

Compound: CSCCNc1nc(SCCC(F)(F)F)nc2c1ncn2[C@@H]1O[C@H](COP(=O)(O)OP(=O)(O)C(Cl)(Cl)P(=O)(O)O)[C@@H](O)[C@H]1O [cangrelor]
platelet thrombus formation [4]: similarly potent effects | intravascular coagulation (fibrin clot formation / fibrin deposition) [4]: moderate effect | intravascular coagulation (fibrin clot formation / fibrin deposition) ([4]; listed as Cangrelor): only partially inhibited | platelet thrombus formation ([4]; listed as Cangrelor): similarly inhibited
